The values below come from paper PMC5569017, “Development of a novel immunoassay to detect interactions with the transactivation domain of p53: application to screening of new drugs” (Scientific Reports, 2017).

Molecules are shown by their SMILES. Like-named read-outs stand apart in the source and are kept apart here.

In one assay the test system is p53/MDM2 interaction. The conditions noted are these: cited from earlier work.
The next assay concerns the target T1, p53-MDM2 interaction (Homo sapiens, UniProt Q00987).
T1 construct: made in house; host or cells: MDM2-GST: Escherichia coli BL21 (DE3), crude extract; p53-His: HEK293T cells transfected with pEnter-p53, crude lysate
In words: AlphaLISA inhibitor screening assay, p53-MDM2 (cellular extracts with p53-His and MDM2-GST). The class given is biochemical. The conditions noted are these: 33.3 μg/well MDM2-GST extract, Fig. 4; for concentration above which the AlphaLISA signal reached a plateau: dose-response, 1:10 serial dilutions. (Alpha assays give light when donor and acceptor beads are brought close together.)

The target in another assay is MDM2. The arrangement: method as in PMID 27764791. The settings on record: read-out: Ki, MDM2 antagonist; cited from earlier work.

T1 sequence (Q00987 whole entry): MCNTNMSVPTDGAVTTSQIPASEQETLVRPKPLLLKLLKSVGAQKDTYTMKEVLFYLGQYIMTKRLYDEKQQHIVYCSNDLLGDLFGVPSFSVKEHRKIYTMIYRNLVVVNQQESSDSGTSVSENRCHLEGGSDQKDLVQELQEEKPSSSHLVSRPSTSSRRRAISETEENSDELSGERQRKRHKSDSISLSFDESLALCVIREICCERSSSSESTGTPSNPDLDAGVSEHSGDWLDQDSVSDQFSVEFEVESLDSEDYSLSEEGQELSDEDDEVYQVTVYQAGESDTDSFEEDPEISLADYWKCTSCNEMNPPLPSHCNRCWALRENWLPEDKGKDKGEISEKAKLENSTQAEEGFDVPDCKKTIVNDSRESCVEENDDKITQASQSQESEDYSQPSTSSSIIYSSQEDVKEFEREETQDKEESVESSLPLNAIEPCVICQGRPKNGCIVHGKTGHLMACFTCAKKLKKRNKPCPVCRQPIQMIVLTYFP

Take `COc1cc(C(=O)O)ccc1NC(=O)[C@@H]1N[C@@H](CC(C)(C)C)[C@](C#N)(c2ccc(Cl)cc2F)[C@H]1c1cccc(Cl)c1F` [Idasanutlin]: the IC50 in the assay on p53/MDM2 interaction (read-out: IC50, p53-MDM2 inhibitor) is 6 nM. Also, at p53-MDM2 interaction (serial dilutions starting with 20 μM), the “course of AlphaLISA response signal with increasing inhibitor dose” value is recorded as “continued to rise rapidly”.

`CC(C)(C)C[C@@H]1N[C@@H](C(=O)N[C@H]2CC[C@H](O)CC2)[C@H](c2cccc(Cl)c2F)[C@]12C(=O)Nc1cc(Cl)ccc12` [MI-773]: the Ki on MDM2 was 0.88 nM. Also, at p53-MDM2 interaction, the “concentration above which the AlphaLISA signal reached a plateau” value is “exceeded 1 μΜ”.

On to `COc1ccc(C2=N[C@@H](c3ccc(Cl)cc3)[C@@H](c3ccc(Cl)cc3)N2C(=O)N2CCNC(=O)C2)c(OC(C)C)c1` [Nutlin-3a], for which, in the assay with p53/MDM2 interaction (cell-free assay, read-out: IC50, inhibition of the p53/MDM2 interaction), the IC50 was […].

As for `CCOc1cc(C(C)(C)C)ccc1C1=N[C@@](C)(c2ccc(Cl)cc2)[C@@](C)(c2ccc(Cl)cc2)N1C(=O)N1CCN(CCCS(C)(=O)=O)CC1` [RG-7112], the “concentration above which the AlphaLISA signal reached a plateau” value at p53-MDM2 interaction is “exceeded 1 μΜ”.

One may read the Ki as a dissociation constant, usually derived from enzyme kinetics or from competition with a known ligand.
